The values below come from patent US20040248971A1, “Use of vitamin e succinate and antiandrogen combination” (priority 2001, published 2004).

For one assay, the system named is LNCaP cells. Nature of the assay: MTT assay / cell counting, LNCaP cell growth. Format: cell-based, human. On the procedure: Cells were harvested at the time indicated. […] Cells were harvested at the time indicated. […] Cell growth was determined by the MTT assay. The control group was cultured in 0.1% (vol/vol) ethanol and was set at 100%.
All the cell growth was determined by cell counting and MTT assay. Control group contained 0.1% (v/v) ethanol and was set at 100%.
LNCaP cells were cultured in RPMI medium with 8% FBS, and treated with 10^−5M of the indicated reagent Cells were harvested at the time indicated in the figure. All the cell growth was determined by cell counting and MTT assay. Control group contained 0.1% (v/v) ethanol and was set at 100%.
The human prostate cancer cell line LNCaP was obtained from the American Type Culture collection (Rockville, Md.). Fibroblast cell was primarily cultured from normal prostate tissue. LNCaP cells were propagated in 12-well, 60 mm or 100 mm culture dishes at the desired density in RPMI 1640 medium (Gibco, Rockville, Md.) supplemented with 8% fetal bovine serum (FBS) (Gibco, Rockville, Md.) at 37° C. and 5% CO2 until reaching 60%-80% confluence or were grown in phenol red-free RPMI medium 1640 with 8% fetal bovine serum (FBS). The fibroblast cells were maintained in DMEM (Gibco, Rockville, Md.) with 10% FBS. […] During the treatment, the medium was changed every 4 days and fresh compounds were added every 2 days.
The MTT assay is a quantitative colorimetric assay for mammalian cell survival and proliferation (13, 16). The 5×10^4 LNCaP cells were seeded in 12-well plates. After 36-48 h, the medium was changed to phenol red free RPMI1640 with 8 % FBS or CS-FBS for another 2, 4, and 6 days, with different compound treatment with or without ligand. At the end of each time period treatment, 200 μl of MTT (5 mg/ml; Sigma) was added into the each well with 1 ml of medium for 3 h at 37° C. After incubation, 2 ml of 0.04 M HCl in isopropyl alcohol was added into each well. After 30-min shaking at room temperature and several pippettings, the absorbency was read at a test wavelength of 595 nm. The 2×10^5 fibroblast cells were seeded in each well of 6-well dishes. […] For cell counting, cells were trypsinized, neutralized by medium, and counted on hemocytometers. Fibroblast cells were seeded at 2×10^5 per well in 6-well plates, and cell growth assays were conducted by using the same MTT assay used for LNCaP cells.
(In general: Tetrazolium assays rely on reduction of a dye to a coloured formazan, in cell work by metabolically active cells.)

The next assay has as its system PSA. Nature of the assay: PSA expression in LNCaP cells (Western and Northern blotting). It is filed as cell-based, human. The conditions noted are these: LNCaP; for PSA expression: Western blotting (FIG. 9). On the procedure:
(§1) Cells without treatment were harvested on day 2 and used as a control. Western blotting was used to detect the expression of PSA protein. Actin served as an internal control. […] Cells were harvested on days 1, 2, and 3 for Northern blotting analysis. β-Actin served as an internal control. […] The transfections were performed at least three times and presented as an average±SD. […] LNCaP cells without any treatment harvested on the first day (day 0) is used as a control. Western blotting was applied to detect the expression of PSA protein level. […] Cells were harvested on day 1, 2, and 3 for Northern blotting analyses. (G). […] The transfections were performed three times and presented as an average: bar-denotes standard deviation.
Protein harvested from cells without treatment on the first day (day 0) was used as a control. Fifty micrograms of whole-cell lysate was subjected to Western blotting assay.
LNCaP cells were cultured in RPMI medium with 8% FBS, and treated with […] of the indicated reagent. Proteins harvested from cells without treatment on day 2 were used as a control. 60 micrograms of whole cell lysate was subjected to Western blotting assay.
Total protein lysate from LNCaP cells was prepared as previously described (Yeh, PNAS). After separation of 50 μg protein by SDS-PAGE gel, proteins were transferred by electrophoresis to Immobilon-P membrane (Millipore Corp., Bedford, Mass.) and incubated in PBS with 0.1% Tween-20 and 10% FCS for 2 h. Primary antibodies specific for human AR, PSA, and β-actin were diluted in PBS with 0.1% Tween-20 (PBST) as described in manual and incubated at room temperature for 2 h. Membranes were washed in PBST (three times, 10 min each time) and incubated with AP-conjugated secondary antibody which was diluted as described in manual in PBST and incubated for 2 h in room temperature, washed in PBST (three times, 10 min each time). The proteins were detected by AP western blotting reagents.
Cells were harvest after 1, 2, and 3 days treatment. Total RNA was extracted using Trizol, according to manufacturer's directions (GIBCO). Total RNA (20 μg) was electrophoresed though formaldehyde-agarose gels and transferred to Hybond-N+ membrane (Amersham Pharmacia Biotech) according the company's protocol (17).
For Northern blots, the fragments of the human PSA, AR, and β-actin cDNA were labeled with [^32P]-dCTP using the random primed DNA labeling kit from Amersham Pharmacia Biotech. Membranes were prehybridized, hybridized, and washed using Rapid-hyb system from Amersham Pharmacia Biotech, according to the manufacturer's user manual. The mRNA was detected using phosphorimager screen system (Molecular Dynamics).

Another assay relates to PSA6.0-Luc. Nature of the assay: PSA promoter luciferase reporter (PSA6.0-Luc) in LNCaP cells. It is filed as cell-based, human. The conditions noted are these: 5 nM DHT, 10 μM VES or Suc. The protocol: as §1
The subject of assay [1] is AR. The assay is described as follows: In vivo AR radioligand competition binding assay in LNCaP cells. More on the design: species or system human. The conditions noted are these: 2.5 nM [3H]R1881, 100-fold excess unlabeled R1881 (250 nM). The protocol:
[^3H]R1881-binding without competition was set at 100%. […] (B) AR N-C dimerization.
LNCaP cells were plated into 60-mm dishes and grown to 60% confluence. […] After 1-h incubation, cells were harvested by lysis buffer (PBS with 1% Triton X-100). Equal protein amounts of cell extract were subjected to binding assays, which were terminated by adding hydroxylapatite. Each sample was filtered by using a sampling manifold (Millipore) and unbound ligand was removed by washing. Filter papers that contained bound ligand were transferred to counting vials containing 5 ml of liquid scintillation fluid and counted with a multipurpose scintillation counter (Beckman).

For assay [2], the system named is AR. The assay is described as follows: AR expression in LNCaP cells (Western and Northern blotting). It is filed as cell-based, human. The conditions noted are these: for AR expression at the protein level: Western blotting, 10 μM VES, Suc or SM, 10 nM Vit D; for AR expression: 8% FBS, Western blotting (FIG. 9). On the procedure: Cells were harvested at different time points. Twenty-five micrograms of RNA and 50 μg of protein collected from the same culture dish were applied for Northern blotting and Western blotting assays, respectively (45). The amount of actin is shown as a control. […] LNCaP cells without treatment were harvested on day 2 and used as a control. Whole-cell lysates were subjected to Western blotting assay using primary antibodies for AR, VDR, PPAR, or RXR. […] Protein harvested from cells without treatment on the first day (day 0) was used as a control. Fifty micrograms of whole-cell lysate was subjected to Western blotting assay. […] LNCaP cells were cultured in RPMI medium with 8% FBS, and treated with […] of the indicated reagent. Proteins harvested from cells without treatment on day 2 were used as a control. 60 micrograms of whole cell lysate was subjected to Western blotting assay. Total protein lysate from LNCaP cells was prepared as previously described (Yeh, PNAS). […] Membranes were washed in PBST (three times, 10 min each time) and incubated with AP-conjugated secondary antibody which was diluted as described in manual in PBST and incubated for 2 h in room temperature, washed in PBST (three times, 10 min each time). The proteins were detected by AP western blotting reagents. […] Cells were harvest after 1, 2, and 3 days treatment. Total RNA was extracted using Trizol, according to manufacturer's directions (GIBCO). Total RNA (20 μg) was electrophoresed though formaldehyde-agarose gels and transferred to Hybond-N+ membrane (Amersham Pharmacia Biotech) according the company's protocol (17). For Northern blots, the fragments of the human PSA, AR, and β-actin cDNA were labeled with [^32P]-dCTP using the random primed DNA labeling kit from Amersham Pharmacia Biotech. Membranes were prehybridized, hybridized, and washed using Rapid-hyb system from Amersham Pharmacia Biotech, according to the manufacturer's user manual. The mRNA was detected using phosphorimager screen system (Molecular Dynamics).
For orientation: Immunoblotting shows a protein as a band on a membrane.

A further assay addresses human TAP (hTAP) (Homo sapiens, UniProt O76054). The conditions noted are these: recombinant hTAP; read-out: Kd of binding to recombinant hTAP; cited from earlier work.
Setting [3] is: RPMI 8% FBS, 10^−5M reagent, cell counting and MTT (FIGS. 8 and 10).

Each structure is given as a SMILES string. pKd: −log10 of the molar value.

Sequence of human TAP (hTAP) (O76054 whole entry): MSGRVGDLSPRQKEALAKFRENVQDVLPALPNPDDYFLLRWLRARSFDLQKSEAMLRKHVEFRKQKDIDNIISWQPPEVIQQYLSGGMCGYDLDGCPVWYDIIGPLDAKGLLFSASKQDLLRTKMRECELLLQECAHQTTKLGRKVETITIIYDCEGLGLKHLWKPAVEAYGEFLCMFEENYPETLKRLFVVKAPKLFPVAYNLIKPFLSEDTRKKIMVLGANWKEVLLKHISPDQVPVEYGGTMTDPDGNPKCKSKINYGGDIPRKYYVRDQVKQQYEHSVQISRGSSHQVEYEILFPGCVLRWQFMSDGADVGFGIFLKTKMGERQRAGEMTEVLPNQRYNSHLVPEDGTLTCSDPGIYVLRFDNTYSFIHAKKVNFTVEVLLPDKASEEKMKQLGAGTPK

Regarding `C[C@]12CCC(=O)C[C@@H]1CC[C@@H]1[C@@H]2CC[C@]2(C)[C@@H](O)CC[C@@H]12` [DHT, 5-dihydrotestosterone], the LNCaP cell growth result in the assay with LNCaP cells (8% CS-FBS, DHT 5 nM, MTT) is on record as “can stimulate”. Further, the “PSA expression at mRNA and protein levels” value with PSA (5 nM DHT, 10 μM VES, Western and Northern blotting) is on record as “induced”. Also, the “DHT induced PSA6.0-Luc activity” value in the assay on PSA6.0-Luc was “induced”.

Consider `CC(C)(O)C(=O)Nc1ccc([N+](=O)[O-])c(C(F)(F)F)c1` [HF, hydroxyflutamide], for which the “DHT-mediated LNCaP cell growth” value with LNCaP cells (8% CS-FBS with 5 nM DHT, HF 5 μM, VES 10 μM, MTT) was “fails to repress”. For the same compound, the LNCaP cell growth result in the assay on LNCaP cells (8% FBS without DHT, HF 5 μM, VES 10 μM, MTT) is listed as “induces LNCaP cell growth at day 2, with the induction gradually diminishing after day 4”.

For the compound `C[C@]1(O)CC[C@H]2[C@@H]3CCC4=CC(=O)CCC4=C3C=C[C@@]21C` [R1881, reference compound], in the assay with AR [1], the “specific binding of [3H]R1881 competed” value is reported as 95%.

On to `C[Se]CC[C@H](N)C(=O)O` [SM, selenomethionine], for which the LNCaP cell growth entry in the assay on LNCaP cells (10 μM SM, after 4 days treatment) is “growth inhibition”. Moreover, the “PSA expression (protein)” value in the assay on PSA (8% FBS, 10 μM SM, Western blot) is given as “no effect”. Also, the “AR expression at the protein level” value in the assay on AR [2] is recorded as “no effect”.

For `O=C(O)CCC(=O)O` [Suc, succinic acid], the “DHT induced PSA6.0-Luc activity” value with PSA6.0-Luc is recorded as “not”. The “AR expression at the protein level” value with AR [2] is recorded as “not”.

As to `CC(=O)Oc1c(C)c(C)c2c(c1C)CCC(C)(CCC[C@H](C)CCC[C@H](C)CCCC(C)C)O2` (stereo partly drawn) [VEA, α-Vit E acetate], the PSA expression entry in the assay with PSA (8% FBS) was “do not efficiently inhibit”. Further, the AR expression entry in the assay with AR [2] is “do not efficiently inhibit”.

Take `C=C1/C(=C\C=C2/CCC[C@]3(C)[C@@H]([C@H](C)CCCC(C)(C)O)CC[C@@H]23)C[C@@H](O)C[C@@H]1O` [Vit D, 1α, 25-dihydroxyvitamin D3]: the LNCaP cell growth result in the assay on LNCaP cells (setting [3]) is “can inhibit”. Besides, in the assay on AR [2], the “AR expression at the protein level” value is recorded as “not”.

The pKd is the Kd on a negative log10 scale, so that one unit is a factor of ten. With `Cc1c(C)c2c(c(C)c1O)CCC(C)(CCCC(C)CCCC(C)CCCC(C)C)O2` (stereo not shown) [vitamin E], on human TAP (hTAP), the pKd was 6.34.

Consider `Cc1c(C)c2c(c(C)c1O)CC[C@@](C)(CCC[C@H](C)CCC[C@H](C)CCCC(C)C)O2` [α-Vit E, alpha—tocopherol], for which, in the assay on LNCaP cells (setting [3]), the LNCaP cell growth entry is reported as “can inhibit”. Also, the PSA expression entry in the assay on PSA (8% FBS) was “can also inhibit”. Moreover, in the assay on AR [2], the AR expression entry was “can also inhibit”.

On to `Cc1c(O)cc2c(c1C)O[C@](C)(CCC[C@H](C)CCC[C@H](C)CCCC(C)C)CC2` [γ-Vit E, (+)-γ-tocopherol], for which, in the assay with LNCaP cells (setting [3]), the LNCaP cell growth result was “can inhibit”. Also, in the assay on PSA (8% FBS), the PSA expression entry is reported as “do not efficiently inhibit”. The AR expression result in the assay on AR [2] is reported as “do not efficiently inhibit”.
